Data on four molecules can be found in US5789379A, “Glucagon-like peptide-2 analogs” (Allelix Biopharmaceutical Inc., priority 1996, dated 1998).

Square brackets hold non-standard residues; d marks the D form. Ends that are not written are not given here. Peptide text beside a SMILES is read from it.

The target in one data set is T1, human placental DPP-IV (Homo sapiens, UniProt P27487).
T1 construct: a solution of human placental DPP-IV (Calbiochem, La Jolla, Calif., cat. # 317624); purchased Calbiochem, La Jolla, Calif; 317624; host or cells: human placenta (tissue-derived)
T1 sequence (P27487 whole entry): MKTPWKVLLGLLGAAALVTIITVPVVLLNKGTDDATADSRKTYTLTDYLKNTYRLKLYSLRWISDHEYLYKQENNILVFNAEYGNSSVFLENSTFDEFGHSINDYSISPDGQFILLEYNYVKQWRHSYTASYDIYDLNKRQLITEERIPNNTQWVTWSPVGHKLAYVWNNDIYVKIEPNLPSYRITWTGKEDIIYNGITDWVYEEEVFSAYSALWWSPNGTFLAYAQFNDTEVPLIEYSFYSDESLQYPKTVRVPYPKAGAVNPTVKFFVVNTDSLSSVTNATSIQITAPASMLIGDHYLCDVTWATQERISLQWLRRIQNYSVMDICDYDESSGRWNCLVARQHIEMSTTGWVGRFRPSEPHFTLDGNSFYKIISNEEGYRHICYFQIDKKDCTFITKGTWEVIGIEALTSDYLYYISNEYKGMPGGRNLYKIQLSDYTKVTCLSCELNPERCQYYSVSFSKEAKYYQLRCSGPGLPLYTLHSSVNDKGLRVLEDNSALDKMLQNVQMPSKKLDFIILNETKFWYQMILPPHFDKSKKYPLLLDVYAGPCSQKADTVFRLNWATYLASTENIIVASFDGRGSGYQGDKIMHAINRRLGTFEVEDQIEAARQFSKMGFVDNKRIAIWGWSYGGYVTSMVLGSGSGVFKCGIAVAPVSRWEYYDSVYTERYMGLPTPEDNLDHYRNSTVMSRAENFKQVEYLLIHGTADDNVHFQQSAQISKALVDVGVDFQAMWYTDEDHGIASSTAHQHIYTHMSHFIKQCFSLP
The experiment in a line: Assay for resistance to dipeptidyl peptidase IV. It is filed as in vitro ADME. The note with it: for cleavage products detected: after 24 hours incubation with DPP-IV at 37° C., RP-HPLC. As to the method:
Each peptide was tested in duplicate.
Sample components were detected at 214 nanometers (nm).

The test system of data set [1] is rat liver and brain tissues. The note with it: cited from earlier work.
The subject of data set [2] is adenylate cyclase. The note with it: liver plasma membranes; cited from earlier work.
In data set [3] the test system is adenylate cyclase. The note with it: rat hypothalamic and pituitary tissue; cited from earlier work.

On to `CC[C@H](C)[C@H](NC(=O)[C@H](Cc1ccccc1)NC(=O)[C@H](CC(=O)O)NC(=O)[C@H](CCCNC(=N)N)NC(=O)[C@@H](NC(=O)[C@H](C)NC(=O)[C@H](CC(C)C)NC(=O)[C@H](CC(N)=O)NC(=O)[C@H](CC(=O)O)NC(=O)[C@H](CC(C)C)NC(=O)[C@@H](NC(=O)[C@@H](NC(=O)[C@H](CC(N)=O)NC(=O)[C@H](CCSC)NC(=O)[C@H](CCC(=O)O)NC(=O)[C@H](CC(=O)O)NC(=O)[C@H](CO)NC(=O)[C@H](Cc1ccccc1)NC(=O)[C@H](CO)NC(=O)CNC(=O)[C@H](CC(=O)O)NC(=O)[C@@H](C)NC(=O)[C@@H](N)Cc1c[nH]cn1)[C@@H](C)O)[C@@H](C)CC)[C@@H](C)O)C(=O)N[C@@H](CC(N)=O)C(=O)N[C@@H](Cc1c[nH]c2ccccc12)C(=O)N[C@@H](CC(C)C)C(=O)N[C@H](C(=O)N[C@@H](CCC(N)=O)C(=O)N[C@H](C(=O)N[C@@H](CCCCN)C(=O)N[C@H](C(=O)N[C@H](C(=O)N[C@@H](CC(=O)O)C(=O)O)[C@@H](C)O)[C@@H](C)CC)[C@@H](C)O)[C@@H](C)CC` [compound 3, [D-Ala^2]rGLP-2] (H-H[dA]DGSFSDEMNTILDNLATRDFINWLIQTKITD-OH), for which the cleavage products detected entry on human placental DPP-IV was “No cleavage products were detected”.

As for “GLP-2: glucagon-like peptide GLP-2 as studied by Hoosein et al (literature); species not stated”, the “competition with glucagon for binding” value in data set [1] is given as “neither competes”. The “stimulation of adenylate cyclase production” value with adenylate cyclase [2] is “nor stimulates”. Moreover, the “concentration stimulating adenylate cyclase” value with adenylate cyclase [3] was 30 to 50 pM.

“HADGSFSDEMNTILDNLATRDFINWLIQTKITD [compound 1, rGLP-2]”: the “peptide cleaved by DPP-IV” value at human placental DPP-IV (24 hour incubation at 37° C., 0.2 mg/ml peptide in PBS pH 7.4, RP-HPLC) is on record as 22%.

Consider “HGDGSFSDEMNTILDNLATRDFINWLIQTKITD [compound 4, [Gly^2]rGLP-2]”, for which the cleavage products detected entry at human placental DPP-IV is recorded as “No cleavage products were detected”.
